Patent US8691796B2, “Pharmaceutical composition and method for inhibiting inflammation” (China Medical University, priority 2010, dated 2014)

What was measured:
Assay type in all cases: cell-based, human
TNF-α = TNF-α concentration in supernatant of treated FLS (sandwich ELISA); conditions: FLS from patients with rheumatoid arthritis, treated 24 hours, mixture = 100 μg hyaluronic acid + 5 micro-mole lovastatin in 1 ml, control group 347.00
Method: (§1) Fibroblast-like synoviocytes (FLS) from seven patients with rheumatoid arthritis (RA) were collected and incubated. First, the joint synovia from the patients were cut into small pieces and suspended in a DMEM medium (Dulbecco modified eagle's medium, comprising 1.5 g/L sodium bicarbonate (S6297, Sigma-Aldrich Co. St Louis, Mo., USA), 1% penicillin-streptomycin-neomycin (P4083, Sigma-Aldrich Co.), and 10% fetal bovine serum (04-001-1A, Biological Industries, Grand Island, N.Y., USA)), and were incubated in the environment under 37° C., 5% CO2 for three days.
(§2) The non-adherent cells were washed out with a phosphate buffer solution (PBS), the medium was refreshed, and the retained adherent cells were cultivated for two weeks. […]
(§3) The concentrations of two RA-related factors, TNF-α (the standard sample was purchased from eBioscience, Ltd., 88-7340) and IL-8 (the standard sample was purchased from R&D systems, Inc., USA, DY208), in the supernatants collected from Experiment B were measured using a sandwich binding protein assay kit or sandwich ELISA kits (purchased from eBioscience, Ltd. and R&D systems, Inc.) according to the manufacturer's manual and standard curves to observe the expression level of the factors, thereby determining the inflammation condition of the cells. Each sample was analyzed twice, and an ELISA reader (Sunrise Remote, TECAN) was used to conduct the measurement. […]

IL-8 = IL-8 concentration in supernatant of treated FLS (sandwich ELISA); conditions: FLS from patients with rheumatoid arthritis, treated 24 hours, mixture = 100 μg hyaluronic acid + 5 micro-mole lovastatin in 1 ml, control group 736.00
Method: The non-adherent cells were washed out with a phosphate buffer solution (PBS), the medium was refreshed, and the retained adherent cells were cultivated for two weeks. The above procedure was repeated three to six times, and the retained cells were FLS, which were used in the following experiments.
The FLS prepared from Experiment A were incubated in a medium containing no serum for 24 hours until the cells grew to a subconfluence state, and the cells were incubated in a DMEM medium containing 10% fetal bovine serum. […]

[1] = test system: Fibroblast-like synoviocytes (FLS); test: Inflammation level of FLS judged from secreted TNF-α and IL-8; conditions: FLS from patients with RA, treated 24 hours; TNF-α and IL-8 versus control group / HA only
Method: as §1, §2, §3

Compound | TNF-α concentration, Average concentration (TNF-α) | IL-8 concentration, Average concentration (IL-8) | inflammation level (effect of inhibiting the inflammation) [1]
CC[C@H](C)C(=O)O[C@H]1C[C@@H](C)C=C2C=C[C@H](C)[C@H](CC[C@@H]3C[C@@H](O)CC(=O)O3)[C@H]21 [HMG-CoA reductase inhibitor, Lovastatin] | 355.07 pg/mL | 703.94 pg/mL | 
hyaluronic acid [HA] | 296.46 pg/mL | 353.40 pg/mL | the inflammation level was lowered
